Entries after “also recorded” stand apart in the source; their conditions may differ.
How the values were obtained:
Type in all cases: cell-based, human
ABCA1 = test: Bodipy lipid deposits in CC-HS treated Stargardt iRPE with ABCA1 activator; conditions: 10 μM
Source text: 115(36): p. 9014-9019]. […] To further understand the ABCA4 driven mechanism in disease pathogenesis, this example focuses on ABCA1- an ABCA4 homolog, involved in cholesterol transport. […] Journal of Biological Chemistry, 2013. 288(48): p. 34414-34426, Tanaka, A. R., et al., Human ABCA1 contains a large amino-terminal extracellular domain homologous to an epitope of Sjögren's Syndrome. Biochemical and biophysical research communications, 2001. 283(5): p. 1019-1025, Storti, F., et al., Impaired ABCA1/ABCG1-mediated lipid efflux in the mouse retinal pigment epithelium (RPE) leads to retinal degeneration. Elife, 2019. 8: p. e45100.]. To determine if both ABCA proteins work through the lipid handling pathway, the effects of modulating ABCA1 expression on changes the disease phenotype in Stargardt RPE cells was observed. An shRNA knockdown of ABCA1 in ABCA4 iRPE cells was performed and the cells were treated with CC-HS. […] (FIG. 34A-G), In contrast, lipid accumulation defects in Stargardt RPE cells were rescued by ABCA1 overactivation using GW3965 (ABCA1 activator) (FIG. 34 H-N).

iRPE cells [1] = test: Proteotoxic high throughput screen (LOPAC) and follow up screen: survival of A23187 treated iRPE; conditions: seven-point dose curve; A23187 2.5, 5, 10 μM; two iRPE samples
Procedure: 10 μM concentration of A23187 was selected for the drug screening, because it provided a bigger margin for cell death rescue. […] Drug treatment along with the stressor, 10 μM A23187 were added on to iRPE cells matured in 384-well plates and cell death was scored 48 hours later by ATP release using the CellTitrGlo assay.
To distinguish false positives from the real signal, a follow up screen on all of the 45 drugs using iRPE derived from two different iPSC lines was performed. The follow up screen was performed at three different A23187 concentrations (2.5, 5, 10 μM) and with seven different concentrations of drugs ranging from 10 nM-1 mM (FIG. 13D-F). […] Overall, the HTS screen provided two drugs for testing in the in vitro AMD model.

iRPE cells [2] = test: Sub-RPE APOE deposits in CC-HS treated iRPE with receptor blockers; conditions: concurrent use of compstatin 10 μM (C3aR1 blocker) and PMX053 10 μM (C5aR1 blocker) in CC-HS
Source text: It was hypothesized that CC-HS triggered AMD cellular phenotypes in iRPE cells are generated by the anaphylatoxin arm of the complement pathway via C3a-C3aR1 and C5a-05aR1 signaling induced intracellular inflammation (Fernandez-Godino and Pierce 2018). RNAseq confirmed the expression of both receptors in iRPE cells with ˜30× higher expression in of C5aR1 as compared to C3aR1 (FIG. 10A). Furthermore, the expression of both receptors increases with CC-HS treatment. Western blot confirmed C3aR1 and C5aR1 receptors localization in the membrane fraction of iRPE cells (FIG. 2A). […] To verify that CC-HS activates C3aR and C5aR signaling in iRPE cells, samples were checked for phosphorylation of AKT and ERK1/2, the two key kinases downstream of C3aR1 and C5aR1 receptors (Hajishengallis and Lambris 2010; Zhu et al 2015 Mol Vis; Busch et al 2017 Front. In Immu.). […] Furthermore, consistent with the predominant apical localization of C3aR1 and C5aR1, apical only treatment of CC-HS caused a 4.5-5×TER drop (p<10^−16), similar to the combined apical/basal treatment of CC-HS. In contrast, basal only treatment of CC-HS resulted only in a 2×TER drop (p<10^−16) (FIG. 2H). To further dissect the role of C5aR1 and C3aR1 signaling in inducing AMD cellular phenotypes in iRPE cells, a depleted sera and receptor blocker strategy was employed. […]

iRPE monolayer = test: Transepithelial resistance (TER) of CC-HS treated iRPE monolayer; conditions: compstatin 10 μM and PMX053 10 μM used together in CC-HS
Source text: Lastly, it was checked if the drugs rescued mature RPE phenotype and RPE functionality.

iRPE cells [3] = test: A23187 cytotoxicity on iRPE cells (CellTitrGlo ATP release)
Source text: It was hypothesized that the loss of epithelial phenotype/RPE dedifferentiation is a key AMD cellular phenotype and easier to set up for a high throughput screen. Drugs that would suppress RPE dedifferentiation and recover the epithelial phenotype in cells might also work to rescue additional AMD cellular endophenotypes. Drug screen was designed using a calcium-ionophore A23187 instead of CC-HS serum, for three reasons: 1) CC-HS lost activity in liquid handler tubing used for medium change, likely because active complement proteins were absorbed on the walls of liquid handler tubes; 2) Similar to A23187, CC-HS treatment of iRPE also led to a defect in intracellular calcium homeostasis.
10 μM concentration of A23187 was selected for the drug screening, because it provided a bigger margin for cell death rescue. A commercially available library of pharmaceutically active compounds (LOPAC) with 1280 drugs was used for the screen at two different concentrations 9.2 μM and 46 μM. […]

AMPK = test: Phospho-AMPK ELISA in iPSC-RPE of L-ORD patients and unaffected siblings; conditions: for p-AMPK levels: 0% serum, 2 mM AICAR or 500 nM BAM15
Procedure: Thus, in FIG. 16b iPSC-RPE were incubated with recombinant CTRP5 globular form (0.2 μg/mL gCTRP5) for 30 min in the presence (+) and absence (−) of serum to evaluate its role in AMPK signaling.
To better elucidate the ADIPOR1-CTRP5 (receptor-ligand) interaction, […] a ligand dose response curve was performed (in serum free media) by exogenously adding increasing concentrations of recombinant full length CTRP5 (FIG. 16c).
AMPK is a sensitive indicator of the cell energy status and is canonically activated by the levels of AMP or ATP (Hardie and Lin, 2017). Therefore, the AMPK activity (in serum free media) of sibling and patient iPSC-RPE under conditions (increased AMP:ATP ratio) known to stimulate AMPK phosphorylation was characterized (FIG. 16d). iPSC-RPE were incubated in serum deprived media for 5 hours (Park et al., 2009) followed by 30 mins exposure to AICAR (an AMP analogue) or BAM15 (a mitochondrial uncoupler to reduce ATP production).
Metformin treatment consisted of 3 mM metformin added to the apical and basal media for 1½- 2 weeks.

[4] = unaffected siblings, 5h 0% serum, 30 min, 25 ug/mL

Molecule: O=C(O)Cc1cccc(OCCCN(Cc2cccc(C(F)(F)F)c2Cl)CC(c2ccccc2)c2ccccc2)c1 [GW3965]
- intra/sub-RPE bodipy-positive lipid deposits (ABCA1): rescued
- intra/sub-RPE bodipy-positive lipid deposits (ABCA1; listed as GW 3965): reduced lipid deposit

Molecule: COc1cc2ncnc(Nc3cccc(Cl)c3)c2cc1OC [AG-1478]
- cytoprotective activity in follow up screen (iRPE cells [1]): linear response the seven-point dose curve and reproducibility between two different iRPE samples

Molecule: CC[C@H](C)[C@H](N)C(=O)N[C@H]1CSSC[C@@H](C(=O)N[C@H](C(N)=O)[C@@H](C)O)NC(=O)[C@H](CCCN=C(N)N)NC(=O)[C@H](Cc2cnc[nH]2)NC(=O)[C@H](Cc2cnc[nH]2)NC(=O)CNC(=O)[C@H](Cc2c[nH]c3ccccc23)NC(=O)[C@H](CC(=O)O)NC(=O)[C@H](CCC(N)=O)NC(=O)[C@H](C(C)C)NC(=O)[C@H](C(C)C)NC1=O [compstatin]
- lower sub-RPE APOE deposits compared to CC-HS plus vehicle (iRPE cells [2]): 2 ×
- higher iRPE monolayer TER compared to CC-HS treated samples (iRPE monolayer): 5 ×

Molecule: CNc1ccc2oc(C[C@H]3O[C@@]4(CC[C@H]3C)O[C@H]([C@H](C)C(=O)c3ccc[nH]3)[C@H](C)C[C@H]4C)nc2c1C(=O)O [A23187]
- cell death (iRPE cells [3]; 2.5 μM A23187, 48 hours): 50%
- toxicity to iRPE cells (iRPE cells [3]; 96 hours, 2.5, 10, 25 μM A23187): completely toxic; also recorded: cytotoxic

Molecule: NC(=O)c1ncn([C@@H]2O[C@H](CO)[C@@H](O)[C@H]2O)c1N [AICAR]
- p-AMPK levels (AMPK; L-ORD patient RPE, 30 min): insensitive
- p-AMPK levels (AMPK; unaffected siblings, 30 min): stimulates further phosphorylation of AMPK; also recorded: further elevation in AMPK levels

Molecule: Fc1ccccc1Nc1nc2nonc2nc1Nc1ccccc1F [BAM15]
- p-AMPK levels (AMPK; L-ORD patient RPE, 30 min): insensitive
- p-AMPK levels (AMPK; unaffected siblings, 30 min): further stimulates phosphorylation of AMPK; also recorded: further elevation in AMPK levels

B1: recombinant full length CTRP5: recombinant full length CTRP5 (protein, UniProt Q9BXJ0 1-243, looked up)
chain: MRPLLVLLLLGLAAGSPPLDDNKIPSLCPGHPGLPGTPGHHGSQGLPGRDGRDGRDGAPGAPGEKGEGGRPGLPGPRGDPGPRGEAGPAGPTGPAGECSVPPRSAFSAKRSESRVPPPSDAPLPFDRVLVNEQGHYDAVTGKFTCQVPGVYYFAVHATVYRASLQFDLVKNGESIASFFQFFGGWPKPASLSGGAMVRLEPEDQVWVQVGVGDYIGIYASIKTDSTFSGFLVYSDWHSSPVFA
modifications: full-length
- change in p-AMPK levels (AMPK; L-ORD patient RPE, similar concentrations, serum free): had no effect on AMPK activity; also recorded: no measurable change
- p-AMPK level (AMPK; [4]): 47.89%±0.13
- reduction in p-AMPK levels (AMPK; [4]): 50%
